Source: patent US12617831B2 (UNIVERSITE D'ANGERS, priority 2019, dated 2026)

Legend:
human GIPr = target: T1, human GIPr (Homo sapiens, UniProt P48546); test: Cyclic AMP assay (FRET, H74 probe), HEK-293 transfected with human GIPr; type: cell-based; conditions: HEK 293 transfected only with human GIPr, 10^-9 M, 30 min (FIG. 16)
T1 construct: host or cells: HEK-293
T1 sequence (P48546 22-466): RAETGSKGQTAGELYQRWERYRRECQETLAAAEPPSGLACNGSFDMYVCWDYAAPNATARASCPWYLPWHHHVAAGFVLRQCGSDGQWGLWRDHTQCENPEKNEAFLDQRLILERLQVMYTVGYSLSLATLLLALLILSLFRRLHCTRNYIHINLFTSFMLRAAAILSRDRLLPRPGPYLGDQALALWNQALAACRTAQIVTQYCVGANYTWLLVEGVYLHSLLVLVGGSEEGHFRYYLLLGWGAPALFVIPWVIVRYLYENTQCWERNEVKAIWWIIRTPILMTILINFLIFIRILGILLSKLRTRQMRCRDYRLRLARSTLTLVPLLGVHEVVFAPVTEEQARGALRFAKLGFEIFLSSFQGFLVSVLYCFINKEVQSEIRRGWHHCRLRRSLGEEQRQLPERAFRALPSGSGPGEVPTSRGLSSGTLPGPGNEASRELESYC
Protocol: Human HEK-293 cells were plated at a density of 2×10^5 cells/cm^2 in 4 well microslides (ibidi GmbH, Martinsried, Germany). […] Jalink (Netherland Cancer Institute, Amsterdam, Netherland). […] The image acquisition was performed with a 63 X, 1.4 N.A. oil immersion objective and a Hybrid® detector (Leica) and images were collected after 30 minutes. Donor excitation was made with a 458 nm Ar laser, donor emission was collected between 460-505 nm and acceptor emission between 520-600 nm by setting the SP8 spectrometer accordingly. FRET was expressed as the ratio between donor and acceptor signals.

[1] = test system: ovariectomy-induced bone loss in mice; test: Trabecular bone microarchitecture, fifth lumbar vertebra, ovariectomized mice; type: in vivo; conditions: OVX mice, L5, 25 nmoles/kg/day, vs vehicle
Protocol: At 16 weeks of age, ALZET osmotic pumps (model number 2006, Durect Corp., Cupertino, CA) filled with the below saline or peptide were implanted subcutaneously between the two scapula under general anesthesia in 32 mice. Successful filling of pumps was verified by weighting the pump before and after filling. At 20 weeks of age, ALZET osmotic pumps were replaced by similar pumps to ensure delivery for four new weeks. […] This dose and regimen of zoledronic acid was equivalent to the 5 mg infusion approved for the treatment of post-menopausal osteoporosis in humans. Analyses of vertebral bodies of the fifth lumbar vertebra (L5) were performed with a Nanotom nanotomograph (Phoenix, GE, USA) operated at 85 kV, 220 μA, 1000 ms integration time. The isotropic pixel size was fixed at 4 μm, the rotation step at 0.25° and exposure was done with a 0.1 mm copper filter. Each 3D reconstruction image dataset was binarized using global thresholding. Trabecular volume of interest was computerized on coronal sections of the L5 vertebral body. Trabecular VOI was spread over the entire vertebral body excluding the first and last 80 μm from the anterior and posterior cortical wall. All microCT/NanoCT parameters were determined according to guidelines and nomenclature proposed by the American Society for Bone and Mineral Research (Bouxsein et al., 2010).

| Compound | intracellular levels of cAMP (human GIPr) | reduction in trabecular spacing [1] |
| --- | --- | --- |
| CC[C@H](C)[C@H](NC(=O)[C@H](CO)NC(=O)[C@H](CCSC)NC(=O)[C@H](CC(=O)O)NC(=O)[C@H](CO)NC(=O)CNC(=O)[C@H](Cc1ccccc1)NC(=O)[C@H](CO)NC(=O)CNC(=O)[C@H](CCC(=O)O)NC(=O)CNC(=O)[C@@H](N)Cc1c[nH]cn1)C(=O)N[C@@H](C)C(=O)N[C@@H](CC(C)C)C(=O)N[C@@H](CC(=O)O)C(=O)N[C@@H](CCCCN)C(=O)N[C@@H](CC(C)C)C(=O)N[C@@H](C)C(=O)N[C@@H](C)C(=O)N[C@@H](CCCNC(=N)N)C(=O)N[C@@H](CC(=O)O)C(=O)N[C@@H](Cc1ccccc1)C(=O)N[C@H](C(=O)N[C@@H](CC(N)=O)C(=O)N[C@@H](Cc1c[nH]c2ccccc12)C(=O)N[C@@H](CC(C)C)C(=O)N[C@@H](CC(C)C)C(=O)N[C@@H](CCC(N)=O)C(=O)N[C@H](C(=O)N[C@@H](CCCCN)C(=O)N[C@H](C(=O)N[C@H](C(=O)N[C@@H](CC(=O)O)C(=O)O)[C@@H](C)O)[C@@H](C)CC)[C@@H](C)O)C(C)C [GL-0001] | increased intracellular levels of cAMP | – |
| CC[C@H](C)[C@H](NC(=O)[C@H](CO)NC(=O)[C@H](Cc1ccccc1)NC(=O)[C@H](CC(=O)O)NC(=O)[C@H](CO)NC(=O)CNC(=O)[C@H](Cc1ccccc1)NC(=O)[C@H](CO)NC(=O)CNC(=O)[C@H](CCC(=O)O)NC(=O)CNC(=O)[C@@H](N)Cc1c[nH]cn1)C(=O)N[C@@H](C)C(=O)N[C@@H](CC(C)C)C(=O)N[C@@H](CC(=O)O)C(=O)N[C@@H](CCCCN)C(=O)N[C@@H](CC(C)C)C(=O)N[C@@H](C)C(=O)N[C@@H](C)C(=O)N[C@@H](CCCNC(=N)N)C(=O)N[C@@H](CC(=O)O)C(=O)N[C@@H](Cc1ccccc1)C(=O)N[C@H](C(=O)N[C@@H](CC(N)=O)C(=O)N[C@@H](Cc1c[nH]c2ccccc12)C(=O)N[C@@H](CC(C)C)C(=O)N[C@@H](CC(C)C)C(=O)N[C@@H](CCC(N)=O)C(=O)N[C@H](C(=O)N[C@@H](CCCCN)C(N)=O)[C@@H](C)O)C(C)C [GL-0007] | – | 17% |
